# Assay results reported in the kinase profiling compilation of Christmann-Franck et al. (2016).
# Key:
# Assay in all cases: radiometric filter-binding kinase assay, Kinase HotSpot
# Conditions in all cases: compound 0.5 µM; ATP 10 µM
# TLK2 (human) = TLK2 (human) (UniProt Q86UE8)
# STK38 (human) = STK38 (human) (UniProt Q15208)
# MAP3K11 (human) = MAP3K11 (human) (UniProt Q16584)
# ITK (human) = ITK (human) (UniProt Q08881)
# NEK1 (human) = NEK1 (human) (UniProt Q96PY6)
# PBK (human) = PBK (human) (UniProt Q96KB5)
# TAOK1 (human) = TAOK1 (human) (UniProt Q7L7X3)
# MAPK12 (human) = MAPK12 (human) (UniProt P53778)
# PRKG2 (human) = PRKG2 (human) (UniProt Q13237)
# NEK2 (human) = NEK2 (human) (UniProt P51955)
# TAOK3 (human) = TAOK3 (human) (UniProt Q9H2K8)
# MYO3B (human) = MYO3B (human) (UniProt Q8WXR4)
# PRKD2 (human) = PRKD2 (human) (UniProt Q9BZL6)
# ACVR1 (human) = ACVR1 (human) (UniProt Q04771)
# PAK4 (human) = PAK4 (human) (UniProt O96013)
# MYLK2 (human) = MYLK2 (human) (UniProt Q9H1R3)
# EPHA3 (human) = EPHA3 (human) (UniProt P29320)
# NLK (human) = NLK (human) (UniProt Q9UBE8)
# MAP4K4 (human) = MAP4K4 (human) (UniProt O95819)
# EPHA5 (human) = EPHA5 (human) (UniProt P54756)
# DAPK2 (human) = DAPK2 (human) (UniProt Q9UIK4)
# TGFBR2 (human) = TGFBR2 (human) (UniProt P37173)
# CDK3 CCNE1 (human) = CDK3 CCNE1 (human) (UniProt Q00526+P24864)
# DCLK2 (human) = DCLK2 (human) (UniProt Q8N568)
# CDK6 CCND3 (human) = CDK6 CCND3 (human) (UniProt P30281+Q00534)
# SGK2 (human) = SGK2 (human) (UniProt Q9HBY8)
# CAMK2D (human) = CAMK2D (human) (UniProt Q13557)
# GSK3A (human) = GSK3A (human) (UniProt P49840)
# STK10 (human) = STK10 (human) (UniProt O94804)
# MARK3 (human) = MARK3 (human) (UniProt P27448)
# ABL2 (human) = ABL2 (human) (UniProt P42684)
# BRSK1 (human) = BRSK1 (human) (UniProt Q8TDC3)
# HIPK4 (human) = HIPK4 (human) (UniProt Q8NE63)
# ERBB4 (human) = ERBB4 (human) (UniProt Q15303)
# SRPK1 (human) = SRPK1 (human) (UniProt Q96SB4)
# PASK (human) = PASK (human) (UniProt Q96RG2)
# CSNK1G2 (human) = CSNK1G2 (human) (UniProt P78368)
# TEC (human) = TEC (human) (UniProt P42680)
# EGFR (human) = EGFR (human) (UniProt P00533)
# CAMK2G (human) = CAMK2G (human) (UniProt Q13555)
# RPS6KA1 KD1 KD2 (human) = RPS6KA1 KD1 KD2 (human) (UniProt Q15418)
# KDR (human) = KDR (human) (UniProt P35968)
# Chain of DAPK2 (human) (Q9UIK4 whole entry, looked up): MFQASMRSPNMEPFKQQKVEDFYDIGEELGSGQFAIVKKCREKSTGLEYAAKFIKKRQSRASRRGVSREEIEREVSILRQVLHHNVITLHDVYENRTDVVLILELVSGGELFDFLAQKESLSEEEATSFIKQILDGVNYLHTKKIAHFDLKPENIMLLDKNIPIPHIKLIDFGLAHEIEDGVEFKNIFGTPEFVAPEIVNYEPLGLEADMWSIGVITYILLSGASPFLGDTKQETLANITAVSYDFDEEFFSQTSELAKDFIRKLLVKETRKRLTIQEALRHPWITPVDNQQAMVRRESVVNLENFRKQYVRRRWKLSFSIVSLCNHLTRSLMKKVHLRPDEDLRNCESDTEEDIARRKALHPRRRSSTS
# Chain of ACVR1 (human) (Q04771 whole entry, looked up): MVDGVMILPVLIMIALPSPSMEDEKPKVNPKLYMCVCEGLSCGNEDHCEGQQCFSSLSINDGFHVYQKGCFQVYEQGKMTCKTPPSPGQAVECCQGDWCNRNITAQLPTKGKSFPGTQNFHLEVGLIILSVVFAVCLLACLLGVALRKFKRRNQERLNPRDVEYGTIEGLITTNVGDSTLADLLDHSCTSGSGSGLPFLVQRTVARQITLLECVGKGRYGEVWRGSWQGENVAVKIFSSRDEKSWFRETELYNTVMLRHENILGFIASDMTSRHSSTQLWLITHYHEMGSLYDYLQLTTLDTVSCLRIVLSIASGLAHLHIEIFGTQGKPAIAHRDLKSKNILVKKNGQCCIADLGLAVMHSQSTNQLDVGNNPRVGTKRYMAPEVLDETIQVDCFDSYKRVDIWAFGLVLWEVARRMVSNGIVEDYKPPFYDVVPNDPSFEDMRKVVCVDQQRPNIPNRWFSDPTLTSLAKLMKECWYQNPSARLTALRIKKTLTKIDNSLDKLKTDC
# Chain of RPS6KA1 KD1 KD2 (human) (Q15418 whole entry, looked up): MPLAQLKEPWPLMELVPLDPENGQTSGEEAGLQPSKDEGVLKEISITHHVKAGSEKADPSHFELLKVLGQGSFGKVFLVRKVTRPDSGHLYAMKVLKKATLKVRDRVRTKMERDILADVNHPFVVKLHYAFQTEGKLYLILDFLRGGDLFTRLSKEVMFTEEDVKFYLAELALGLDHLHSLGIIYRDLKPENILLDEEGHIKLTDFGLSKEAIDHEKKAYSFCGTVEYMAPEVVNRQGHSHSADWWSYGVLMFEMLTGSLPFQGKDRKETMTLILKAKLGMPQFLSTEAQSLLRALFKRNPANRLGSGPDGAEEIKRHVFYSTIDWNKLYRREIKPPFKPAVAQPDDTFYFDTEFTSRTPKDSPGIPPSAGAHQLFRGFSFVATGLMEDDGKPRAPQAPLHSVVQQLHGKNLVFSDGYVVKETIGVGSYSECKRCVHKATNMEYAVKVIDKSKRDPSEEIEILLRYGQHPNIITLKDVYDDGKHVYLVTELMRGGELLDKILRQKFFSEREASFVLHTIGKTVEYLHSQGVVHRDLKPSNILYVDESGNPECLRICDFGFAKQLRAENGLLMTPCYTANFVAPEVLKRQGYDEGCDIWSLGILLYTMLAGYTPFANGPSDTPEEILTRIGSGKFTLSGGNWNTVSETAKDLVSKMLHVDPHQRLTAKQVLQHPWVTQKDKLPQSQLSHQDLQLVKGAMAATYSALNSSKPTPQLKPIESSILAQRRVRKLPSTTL
# Chain of EPHA3 (human) (P29320 whole entry, looked up): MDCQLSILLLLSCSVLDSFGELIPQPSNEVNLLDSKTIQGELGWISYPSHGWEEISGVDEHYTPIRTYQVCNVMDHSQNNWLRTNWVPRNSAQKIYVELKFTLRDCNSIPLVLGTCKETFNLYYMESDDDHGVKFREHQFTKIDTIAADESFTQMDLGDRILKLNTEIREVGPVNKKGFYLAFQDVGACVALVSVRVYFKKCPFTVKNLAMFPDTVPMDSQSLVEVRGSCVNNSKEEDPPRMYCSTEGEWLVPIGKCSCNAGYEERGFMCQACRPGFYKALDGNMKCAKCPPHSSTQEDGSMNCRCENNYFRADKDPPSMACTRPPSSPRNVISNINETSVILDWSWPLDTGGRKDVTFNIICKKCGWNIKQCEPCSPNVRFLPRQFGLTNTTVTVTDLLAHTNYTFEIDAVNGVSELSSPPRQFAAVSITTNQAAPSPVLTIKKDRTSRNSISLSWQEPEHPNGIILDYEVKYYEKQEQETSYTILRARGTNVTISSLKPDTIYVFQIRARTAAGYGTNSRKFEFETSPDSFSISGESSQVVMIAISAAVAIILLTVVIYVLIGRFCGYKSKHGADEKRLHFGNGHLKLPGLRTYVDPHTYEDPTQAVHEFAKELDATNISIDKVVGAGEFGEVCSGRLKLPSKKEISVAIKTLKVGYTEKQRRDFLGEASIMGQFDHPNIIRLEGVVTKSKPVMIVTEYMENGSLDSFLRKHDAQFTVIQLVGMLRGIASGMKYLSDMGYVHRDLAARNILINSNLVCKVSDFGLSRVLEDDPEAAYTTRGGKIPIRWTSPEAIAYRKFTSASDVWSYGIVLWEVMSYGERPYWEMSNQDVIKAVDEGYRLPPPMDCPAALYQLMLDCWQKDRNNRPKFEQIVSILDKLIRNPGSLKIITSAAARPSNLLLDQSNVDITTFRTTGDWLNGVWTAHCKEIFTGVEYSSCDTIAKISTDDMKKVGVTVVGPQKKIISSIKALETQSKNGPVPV
# Chain of TGFBR2 (human) (P37173 whole entry, looked up): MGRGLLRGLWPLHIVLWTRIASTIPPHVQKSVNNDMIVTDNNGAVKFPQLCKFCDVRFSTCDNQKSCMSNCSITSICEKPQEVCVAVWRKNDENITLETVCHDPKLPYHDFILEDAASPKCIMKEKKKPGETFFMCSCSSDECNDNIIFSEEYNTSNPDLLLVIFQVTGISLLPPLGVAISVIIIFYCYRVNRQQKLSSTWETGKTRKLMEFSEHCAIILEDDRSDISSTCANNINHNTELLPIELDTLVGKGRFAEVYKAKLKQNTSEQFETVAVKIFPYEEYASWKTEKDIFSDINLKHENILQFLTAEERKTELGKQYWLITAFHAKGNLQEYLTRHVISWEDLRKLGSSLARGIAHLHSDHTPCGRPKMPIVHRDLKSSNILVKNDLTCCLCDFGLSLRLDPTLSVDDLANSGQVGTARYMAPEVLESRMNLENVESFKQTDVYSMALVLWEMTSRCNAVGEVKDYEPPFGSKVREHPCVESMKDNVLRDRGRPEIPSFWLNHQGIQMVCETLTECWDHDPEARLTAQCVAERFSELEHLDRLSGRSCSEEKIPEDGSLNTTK
# Chain of SRPK1 (human) (Q96SB4 whole entry, looked up): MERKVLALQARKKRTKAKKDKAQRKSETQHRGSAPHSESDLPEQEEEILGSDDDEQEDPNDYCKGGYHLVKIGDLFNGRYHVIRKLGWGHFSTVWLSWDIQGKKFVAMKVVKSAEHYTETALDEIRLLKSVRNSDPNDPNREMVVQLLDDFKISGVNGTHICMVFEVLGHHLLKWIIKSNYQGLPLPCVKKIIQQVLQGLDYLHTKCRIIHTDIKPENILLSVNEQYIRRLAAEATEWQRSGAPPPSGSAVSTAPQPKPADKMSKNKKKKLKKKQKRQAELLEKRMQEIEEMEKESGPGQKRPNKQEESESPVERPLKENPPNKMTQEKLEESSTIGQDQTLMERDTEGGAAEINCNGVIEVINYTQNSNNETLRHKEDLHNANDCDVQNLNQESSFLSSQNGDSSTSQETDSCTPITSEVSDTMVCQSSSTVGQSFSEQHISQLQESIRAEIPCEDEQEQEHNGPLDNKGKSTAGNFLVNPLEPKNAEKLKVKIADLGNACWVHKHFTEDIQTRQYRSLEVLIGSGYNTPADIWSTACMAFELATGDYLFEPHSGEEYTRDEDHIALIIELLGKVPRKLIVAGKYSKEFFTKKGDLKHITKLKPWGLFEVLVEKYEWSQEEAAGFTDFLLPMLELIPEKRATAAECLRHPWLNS
# Chain of CDK6 CCND3 (human) (P30281 whole entry, looked up): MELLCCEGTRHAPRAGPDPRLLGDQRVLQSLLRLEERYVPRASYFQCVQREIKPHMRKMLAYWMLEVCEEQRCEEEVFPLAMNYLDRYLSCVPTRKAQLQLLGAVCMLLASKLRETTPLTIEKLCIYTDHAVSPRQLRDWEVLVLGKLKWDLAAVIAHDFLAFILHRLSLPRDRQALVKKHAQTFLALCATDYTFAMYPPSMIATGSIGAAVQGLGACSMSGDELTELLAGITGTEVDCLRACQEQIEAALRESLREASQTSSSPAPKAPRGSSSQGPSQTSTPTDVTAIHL
# Chain of CDK6 CCND3 (human) (Q00534 whole entry, looked up): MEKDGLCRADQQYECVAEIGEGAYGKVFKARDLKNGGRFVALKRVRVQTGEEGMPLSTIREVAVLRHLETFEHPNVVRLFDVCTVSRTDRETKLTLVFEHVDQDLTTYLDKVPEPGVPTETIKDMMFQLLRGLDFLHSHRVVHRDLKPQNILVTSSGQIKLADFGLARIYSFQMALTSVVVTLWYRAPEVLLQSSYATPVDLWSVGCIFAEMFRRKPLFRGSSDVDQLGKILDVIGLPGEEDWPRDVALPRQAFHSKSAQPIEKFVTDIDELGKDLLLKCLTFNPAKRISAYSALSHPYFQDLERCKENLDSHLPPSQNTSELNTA
# Chain of SGK2 (human) (Q9HBY8 whole entry, looked up): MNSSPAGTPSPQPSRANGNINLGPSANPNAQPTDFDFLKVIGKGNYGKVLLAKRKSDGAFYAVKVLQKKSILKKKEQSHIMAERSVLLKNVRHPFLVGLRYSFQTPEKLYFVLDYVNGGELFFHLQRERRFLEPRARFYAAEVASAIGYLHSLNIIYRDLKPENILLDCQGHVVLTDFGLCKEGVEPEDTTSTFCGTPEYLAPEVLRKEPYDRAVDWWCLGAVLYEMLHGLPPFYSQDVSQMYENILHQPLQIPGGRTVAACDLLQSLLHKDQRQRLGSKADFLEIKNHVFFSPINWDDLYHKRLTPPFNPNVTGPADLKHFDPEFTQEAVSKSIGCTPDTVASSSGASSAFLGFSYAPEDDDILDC
structure (smiles),measurement,setting,value
COc1cc(Nc2c(C#N)cnc3cc(OCCCN4CCN(C)CC4)c(OC)cc23)c(Cl)cc1Cl,residual activity,TLK2 (human),92.2%
same,residual activity,STK38 (human),85.1%
same,residual activity,MAP3K11 (human),13.5%
same,residual activity,ITK (human),103%
same,residual activity,NEK1 (human),15.2%
same,residual activity,PBK (human),104%
same,residual activity,TAOK1 (human),52.8%
same,residual activity,MAPK12 (human),99.9%
same,residual activity,PRKG2 (human),109%
same,residual activity,NEK2 (human),8.56%
same,residual activity,TAOK3 (human),71.3%
same,residual activity,MYO3B (human),40.3%
same,residual activity,PRKD2 (human),35.5%
same,residual activity,ACVR1 (human),93.3%
same,residual activity,PAK4 (human),95.8%
same,residual activity,MYLK2 (human),32.1%
same,residual activity,EPHA3 (human),31.7%
same,residual activity,NLK (human),101%
same,residual activity,MAP4K4 (human),1.03%
same,residual activity,EPHA5 (human),37.1%
same,residual activity,DAPK2 (human),82.9%
same,residual activity,TGFBR2 (human),95.7%
same,residual activity,CDK3 CCNE1 (human),91.9%
same,residual activity,DCLK2 (human),98.4%
same,residual activity,CDK6 CCND3 (human),122%
same,residual activity,SGK2 (human),103%
same,residual activity,CAMK2D (human),94.6%
same,residual activity,GSK3A (human),103%
same,residual activity,STK10 (human),12.6%
same,residual activity,MARK3 (human),65.4%
same,residual activity,ABL2 (human),2.19%
same,residual activity,BRSK1 (human),97.5%
same,residual activity,HIPK4 (human),74.6%
same,residual activity,ERBB4 (human),1.53%
same,residual activity,SRPK1 (human),98.5%
same,residual activity,PASK (human),109%
same,residual activity,CSNK1G2 (human),98.3%
same,residual activity,TEC (human),96.1%
same,residual activity,EGFR (human),3.84%
same,residual activity,CAMK2G (human),131%
same,residual activity,RPS6KA1 KD1 KD2 (human),80.4%
N#C/C(=C\c1ccc(O)c(O)c1)C(=O)NCc1ccccc1,residual activity,TLK2 (human),105%
same,residual activity,STK38 (human),99.1%
same,residual activity,MAP3K11 (human),97%
same,residual activity,ITK (human),98.8%
same,residual activity,NEK1 (human),97.3%
same,residual activity,PBK (human),84.2%
same,residual activity,TAOK1 (human),95.1%
same,residual activity,KDR (human),95.8%
same,residual activity,MAPK12 (human),94.2%
same,residual activity,PRKG2 (human),98.6%
same,residual activity,NEK2 (human),102%
same,residual activity,TAOK3 (human),103%
same,residual activity,MYO3B (human),88.3%
same,residual activity,PRKD2 (human),101%
same,residual activity,ACVR1 (human),91.3%
same,residual activity,PAK4 (human),111%
same,residual activity,MYLK2 (human),97.9%
same,residual activity,EPHA3 (human),97.2%
same,residual activity,NLK (human),110%
same,residual activity,EPHA5 (human),103%
same,residual activity,DAPK2 (human),98.5%
same,residual activity,TGFBR2 (human),111%
same,residual activity,DCLK2 (human),101%
same,residual activity,CDK6 CCND3 (human),104%
same,residual activity,SGK2 (human),101%
same,residual activity,CAMK2D (human),104%
same,residual activity,GSK3A (human),96.5%
same,residual activity,STK10 (human),89.6%
same,residual activity,MARK3 (human),97.5%
same,residual activity,ABL2 (human),93.4%
same,residual activity,BRSK1 (human),104%
same,residual activity,HIPK4 (human),106%
same,residual activity,ERBB4 (human),80.9%
same,residual activity,SRPK1 (human),104%
same,residual activity,PASK (human),95.1%
same,residual activity,CSNK1G2 (human),106%
same,residual activity,TEC (human),123%
same,residual activity,EGFR (human),72.4%
same,residual activity,CAMK2G (human),94.1%
same,residual activity,RPS6KA1 KD1 KD2 (human),102%
